# Source: patent US10131652B2, “Pyrimidinyloxy benzene derivatives as herbicides” (E. I. DU PONT DE NEMOURS AND COMPANY, priority 2014, dated 2018)
# How the values were obtained:
# Format in all cases: in vivo
# [1] = tested on: Italian ryegrass (Lolium multiflorum); assay: Test B pre-/postemergence plant response
# Summary of the method: (§1)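 Evaluation is visual, about 10 days after application, rating injury from 0 (none) to 100 (complete control) relative to untreated controls. Application was a preemergence soil spray on seeded pots or a postemergence spray on one- to two-leaf plants.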
# [2] = tested on: kochia (Kochia scoparia); assay: Test B pre-/postemergence plant response
# Summary of the method: as §1
# [3] = tested on: ragweed (common ragweed, Ambrosia elatior); assay: Test B pre-/postemergence plant response
# Summary of the method: as §1
# [4] = tested on: Italian ryegrass (Lolium multiflorum); assay: Test D pre-/postemergence plant response; details: Lolium multiflorum, pre-emergence, Preemergence
# Summary of the method: (§2)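 Visual rating, 0–100 scale (0 = no effect, 100 = complete control), versus untreated controls 13 to 15 days after treatment in greenhouse. Preemergence: seeds in loam/sand soil. Postemergence: 2 to 18 cm plants, 1- to 4-leaf stage, peat-based medium. Compounds formulated in non-phytotoxic solvent plus surfactant.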
# [5] = tested on: barnyardgrass (Echinochloa crus-galli); assay: Test D pre-/postemergence plant response; details: Echinochloa crus-galli, pre-emergence, Preemergence
# Summary of the method: as §2
# [6] = tested on: blackgrass (Alopecurus myosuroides); assay: Test D pre-/postemergence plant response; details: Alopecurus myosuroides, pre-emergence, Preemergence
# Summary of the method: as §2
# [7] = tested on: corn (Zea mays); assay: Test D pre-/postemergence plant response; details: Zea mays, pre-emergence, Preemergence
# Summary of the method: as §2
# [8] = tested on: galium (catchweed bedstraw, Galium aparine); assay: Test D pre-/postemergence plant response; details: Galium, pre-emergence, Preemergence
# Summary of the method: as §2
# [9] = tested on: giant foxtail (Setaria faberii); assay: Test D pre-/postemergence plant response; details: Setaria faberi, pre-emergence, Preemergence
# Summary of the method: as §2
# [10] = tested on: large (Lg) crabgrass (Digitaria sanguinalis); assay: Test D pre-/postemergence plant response; details: Digitaria sanguinalis, pre-emergence, Preemergence
# Summary of the method: as §2
# [11] = tested on: oilseed rape (Brassica napus); assay: Test D pre-/postemergence plant response; details: Brassica napus, pre-emergence, Preemergence
# Summary of the method: as §2
# [12] = tested on: pigweed (Amaranthus retroflexus); assay: Test D pre-/postemergence plant response; details: Amaranthus retroflexus, pre-emergence, Preemergence
# Summary of the method: as §2
# [13] = tested on: ragweed (common ragweed, Ambrosia elatior); assay: Test D pre-/postemergence plant response; details: Ambrosia artemisiifolia, pre-emergence, Preemergence
# Summary of the method: as §2
# [14] = tested on: yellow nutsedge (Cyperus esculentus); assay: Test D pre-/postemergence plant response; details: Cyperus, pre-emergence, Preemergence
# Summary of the method: as §2
# [15] = 125 g ai/ha, postemergence, 0 to 100 scale, 0 no effect, 100 complete control
# [16] = Postemergence, 500 g ai/ha, 0 to 100 scale (0 no effect, 100 complete control)
# [17] = Preemergence, 125 g ai/ha, 0 to 100 scale (0 no effect, 100 complete control)
# [18] = Preemergence, 500 g ai/ha, 0 to 100 scale where 0 is no effect and 100 is complete control
structure (smiles),measurement,setting,value
"N#Cc1cccc(Oc2ncc(Cl)cn2)c1-c1cc(C(F)(F)F)ccn1 [Compound 158, 5-chloro-2-[3-cyano-2-[4-(trifluoromethyl)-2-pyridinyl]phenoxy]pyrimidine]","Plant response rating, Ryegrass, Italian",[1]; [15],0
same,"Plant response rating, Ryegrass, Italian",[1]; [16],70
same,"Ryegrass, Italian plant response rating",[1]; [17],0
same,"Plant response rating, Ryegrass, Italian",[1]; [18],20
same,"Plant response rating, Kochia",[2]; [15],70
same,"Plant response rating, Kochia",[2]; [16],90
same,Kochia plant response rating,[2]; [17],100
same,"Plant response rating, Kochia",[2]; [18],100
same,"Plant response rating, Ragweed",[3]; [15],0
same,"Plant response rating, Ragweed",[3]; [16],30
same,Ragweed plant response rating,[3]; [17],0
same,"Plant response rating, Ragweed",[3]; [18],20
same,pest or weed control at 125 g/ha,"[4]; 125 g ai/ha, read-out: Plant response rating (scale 0 to 100), Ryegrass, Italian",20%
same,pest or weed control at 16 g/ha,"[4]; 16 g ai/ha, scale 0 to 100 (0 no effect, 100 complete control), read-out: Plant response rating, Ryegrass, Italian",0%
same,pest or weed control at 31 g/ha,"[4]; 31 g ai/ha, scale 0 to 100 (0 no effect, 100 complete control), read-out: Plant response rating, Ryegrass, Italian",0%
same,pest or weed control at 62 g/ha,"[4]; 62 g ai/ha, scale 0 to 100 (0 no effect, 100 complete control), read-out: Plant response rating, Ryegrass, Italian",0%
same,pest or weed control at 125 g/ha,"[5]; 125 g ai/ha, read-out: Plant response rating (scale 0 to 100), Barnyardgrass",20%
same,pest or weed control at 16 g/ha,"[5]; 16 g ai/ha, scale 0 to 100 (0 no effect, 100 complete control), read-out: Plant response rating, Barnyardgrass",0%
same,pest or weed control at 31 g/ha,"[5]; 31 g ai/ha, scale 0 to 100 (0 no effect, 100 complete control), read-out: Plant response rating, Barnyardgrass",5%
same,pest or weed control at 62 g/ha,"[5]; 62 g ai/ha, scale 0 to 100 (0 no effect, 100 complete control), read-out: Plant response rating, Barnyardgrass",35%
same,pest or weed control at 125 g/ha,"[6]; 125 g ai/ha, read-out: Plant response rating (scale 0 to 100), Blackgrass",90%
same,pest or weed control at 16 g/ha,"[6]; 16 g ai/ha, scale 0 to 100 (0 no effect, 100 complete control), read-out: Plant response rating, Blackgrass",0%
same,pest or weed control at 31 g/ha,"[6]; 31 g ai/ha, scale 0 to 100 (0 no effect, 100 complete control), read-out: Plant response rating, Blackgrass",15%
same,pest or weed control at 62 g/ha,"[6]; 62 g ai/ha, scale 0 to 100 (0 no effect, 100 complete control), read-out: Plant response rating, Blackgrass",50%
same,plant injury at 125 g/ha,"[7]; 125 g ai/ha, read-out: Plant response rating (scale 0 to 100), Corn",15%
same,"Corn plant response rating (crop injury, 0 = no effect, 100 = complete kill) at 16 g/ha","[7]; 16 g ai/ha, scale 0 to 100 (0 no effect, 100 complete control)",0%
same,"Corn plant response rating (crop injury, 0 = no effect, 100 = complete kill) at 31 g/ha","[7]; 31 g ai/ha, scale 0 to 100 (0 no effect, 100 complete control)",0%
same,"Corn plant response rating (crop injury, 0 = no effect, 100 = complete kill) at 62 g/ha","[7]; 62 g ai/ha, scale 0 to 100 (0 no effect, 100 complete control)",5%
same,pest or weed control at 125 g/ha,"[8]; 125 g ai/ha, read-out: Plant response rating (scale 0 to 100), Galium",100%
same,pest or weed control at 16 g/ha,"[8]; 16 g ai/ha, scale 0 to 100 (0 no effect, 100 complete control), read-out: Plant response rating, Galium",0%
same,pest or weed control at 31 g/ha,"[8]; 31 g ai/ha, scale 0 to 100 (0 no effect, 100 complete control), read-out: Plant response rating, Galium",50%
same,pest or weed control at 62 g/ha,"[8]; 62 g ai/ha, scale 0 to 100 (0 no effect, 100 complete control), read-out: Plant response rating, Galium",100%
same,pest or weed control at 125 g/ha,"[9]; 125 g ai/ha, read-out: Plant response rating (scale 0 to 100), Foxtail, Giant",100%
same,pest or weed control at 16 g/ha,"[9]; 16 g ai/ha, scale 0 to 100 (0 no effect, 100 complete control), read-out: Plant response rating, Foxtail, Giant",5%
same,pest or weed control at 31 g/ha,"[9]; 31 g ai/ha, scale 0 to 100 (0 no effect, 100 complete control), read-out: Plant response rating, Foxtail, Giant",55%
same,pest or weed control at 62 g/ha,"[9]; 62 g ai/ha, scale 0 to 100 (0 no effect, 100 complete control), read-out: Plant response rating, Foxtail, Giant",85%
same,pest or weed control at 125 g/ha,"[10]; 125 g ai/ha, read-out: Plant response rating (scale 0 to 100), Crabgrass, Large",100%
same,pest or weed control at 16 g/ha,"[10]; 16 g ai/ha, scale 0 to 100 (0 no effect, 100 complete control), read-out: Plant response rating, Crabgrass, Large",25%
same,pest or weed control at 31 g/ha,"[10]; 31 g ai/ha, scale 0 to 100 (0 no effect, 100 complete control), read-out: Plant response rating, Crabgrass, Large",90%
same,pest or weed control at 62 g/ha,"[10]; 62 g ai/ha, scale 0 to 100 (0 no effect, 100 complete control), read-out: Plant response rating, Crabgrass, Large",85%
same,plant injury at 125 g/ha,"[11]; 125 g ai/ha, read-out: Plant response rating (scale 0 to 100), Oilseed Rape",98%
same,plant injury at 16 g/ha,"[11]; 16 g ai/ha, scale 0 to 100 (0 no effect, 100 complete control), read-out: Plant response rating, Oilseed Rape",40%
same,plant injury at 31 g/ha,"[11]; 31 g ai/ha, scale 0 to 100 (0 no effect, 100 complete control), read-out: Plant response rating, Oilseed Rape",50%
same,plant injury at 62 g/ha,"[11]; 62 g ai/ha, scale 0 to 100 (0 no effect, 100 complete control), read-out: Plant response rating, Oilseed Rape",90%
same,pest or weed control at 125 g/ha,"[12]; 125 g ai/ha, read-out: Plant response rating (scale 0 to 100), Pigweed",100%
same,pest or weed control at 16 g/ha,"[12]; 16 g ai/ha, scale 0 to 100 (0 no effect, 100 complete control), read-out: Plant response rating, Pigweed",70%
same,pest or weed control at 31 g/ha,"[12]; 31 g ai/ha, scale 0 to 100 (0 no effect, 100 complete control), read-out: Plant response rating, Pigweed",75%
same,pest or weed control at 62 g/ha,"[12]; 62 g ai/ha, scale 0 to 100 (0 no effect, 100 complete control), read-out: Plant response rating, Pigweed",100%
same,pest or weed control at 125 g/ha,"[13]; 125 g ai/ha, read-out: Plant response rating (scale 0 to 100), Ragweed",50%
same,pest or weed control at 16 g/ha,"[13]; 16 g ai/ha, scale 0 to 100 (0 no effect, 100 complete control), read-out: Plant response rating, Ragweed",80%
same,pest or weed control at 31 g/ha,"[13]; 31 g ai/ha, scale 0 to 100 (0 no effect, 100 complete control), read-out: Plant response rating, Ragweed",60%
same,pest or weed control at 62 g/ha,"[13]; 62 g ai/ha, scale 0 to 100 (0 no effect, 100 complete control), read-out: Plant response rating, Ragweed",70%
same,pest or weed control at 125 g/ha,"[14]; 125 g ai/ha, read-out: Plant response rating (scale 0 to 100), Nutsedge, Yellow",5%
same,pest or weed control at 16 g/ha,"[14]; 16 g ai/ha, scale 0 to 100 (0 no effect, 100 complete control), read-out: Plant response rating, Nutsedge, Yellow",0%
same,pest or weed control at 31 g/ha,"[14]; 31 g ai/ha, scale 0 to 100 (0 no effect, 100 complete control), read-out: Plant response rating, Nutsedge, Yellow",0%
same,pest or weed control at 62 g/ha,"[14]; 62 g ai/ha, scale 0 to 100 (0 no effect, 100 complete control), read-out: Plant response rating, Nutsedge, Yellow",5%
